Reference: patent publication US7449447B2, “Peptidomimetic NS3-serine protease inhibitors of hepatitis C virus” (priority 2003, dated 2008)
*1 amine or outer side, *2 acyl side, *3 side chain or, on linkers, in order; H or OH if unused. Where a SMILES comes first, the peptide text is derived from it. [ ]: non-standard residue; d: D form. The star is where a group is joined. Pro(3R,4S-CMe2) = CC1(C)[C@@H]2[C@@H](C(=O)O)NC[C@@H]21; Abu(4,4-F2) = N[C@@H](CC(F)F)C(=O)O; Phg = N[C@H](C(=O)O)c1ccccc1; Tle = CC(C)(C)[C@H](N)C(=O)O; Boc = CC(C)(C)OC(=O)*; CO = O=C([*:1])[*:2]; X2 = CC1(N*)CCCCC1

These compounds were tested against T1, HCV NS3/NS4a serine protease (Hepatitis C virus genotype 1b, UniProt P26663) (assay: Spectrophotometric assay for HCV protease inhibitory activity (chromogenic ester substrates)). Details: Ki Rating, Table 2; single chain NS4A21-32-GSGS-NS3 3-181 protease, 30° C., pH 6.5.
T1 construct: amino terminus of the NS3 protease domain (amino acids 3-181) with a tetrapeptide linker; made in house; host or cells: E. coli
T1 sequence (P26663 1013-1207, looked up, natural form): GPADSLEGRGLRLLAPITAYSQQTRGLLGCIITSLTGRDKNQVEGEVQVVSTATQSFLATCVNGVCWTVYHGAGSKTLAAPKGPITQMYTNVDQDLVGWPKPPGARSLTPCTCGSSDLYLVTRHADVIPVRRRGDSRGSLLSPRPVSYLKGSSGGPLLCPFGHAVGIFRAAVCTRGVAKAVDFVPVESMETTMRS
Assay type: biochemical, hepatitis C virus (strain 1b)
How it was run: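 Single-chain NS4A(21-32)-GSGS-NS3(3-181) protease (genotype 1b) from E. coli was used at 1.3 nM in 25 mM MOPS pH 6.5 with 300 mM NaCl, 30 °C and 4% DMSO. Chromogenic ester substrate cleavage was followed as PAP release at 370 nm over 60 min. Ki was derived from vo/vi versus [I] plots assuming competitive inhibition.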
For `CC(C)(C)OC(=O)N[C@H](C(=O)N1C[C@H]2[C@@H]([C@H]1C(=O)N[C@@H](CC(F)F)C(=O)NCCC(=O)O)C2(C)C)C(C)(C)C` [Example 169], the Ki was > 500 nM. With `CC(C)[C@H](NC(=O)N[C@H](C(=O)N1C[C@H]2[C@@H]([C@H]1C(=O)N[C@@H](CC(F)F)C(=O)NCCc1ccc(C(N)=O)cc1)C2(C)C)C(C)(C)C)C(=O)OC(C)(C)C` [Example 126] the Ki was 100 to 500 nM. In the case of `CC1(NC(=O)N[C@H](C(=O)N2C[C@H]3[C@@H]([C@H]2C(=O)N[C@@H](CC(F)F)C(=O)NCCC(=O)O)C3(C)C)C(C)(C)C)CCCCC1` [Example 165], the Ki is reported as > 500 nM. In the case of `CN(C)C(=O)[C@@H](NC(=O)CNC(=O)[C@H](CC(F)F)NC(=O)[C@@H]1[C@@H]2[C@H](CN1C(=O)[C@@H](NC(=O)OC(C)(C)C)C(C)(C)C)C2(C)C)c1ccccc1` [Example 171] (Boc-[Tle][Pro(3R,4S-CMe2)][Abu(4,4-F2)]G[Phg]-NMe2), the Ki is reported as > 500 nM. `CN(C)C(=O)[C@@H](NC(=O)CNC(=O)[C@H](CC(F)F)NC(=O)[C@@H]1[C@@H]2[C@H](CN1C(=O)[C@@H](NC(=O)NC1(C)CCCCC1)C(C)(C)C)C2(C)C)c1ccccc1` [Example 172] ({X2-CO}-[Tle][Pro(3R,4S-CMe2)][Abu(4,4-F2)]G[Phg]-NMe2) was tested, and the Ki was > 500 nM. Compound `COC(=O)c1ccc(CCNC(=O)C(CC(F)F)NC(=O)[C@@H]2[C@@H]3[C@H](CN2C(=O)[C@@H](NC(=O)N[C@H](C(=O)OC(C)(C)C)C(C)C)C(C)(C)C)C3(C)C)cc1` (stereo partly shown) [Example 138] has a Ki of 100 to 500 nM. `CC(C)(C)OC(=O)[C@@H](NC(=O)N[C@H](C(=O)N1C[C@H]2[C@@H]([C@H]1C(=O)N[C@@H](CC(F)F)C(=O)NCCc1ccc(C(=O)O)cc1)C2(C)C)C(C)(C)C)C(C)(C)C` [Example 127] showed a Ki of 100 to 500 nM. Compound `CC(C)[C@H](NC(=O)N[C@H](C(=O)N1C[C@H]2[C@@H]([C@H]1C(=O)N[C@@H](CC(F)F)C(=O)NCCc1ccc(C(=O)N(C)C)cc1)C2(C)C)C(C)(C)C)C(=O)OC(C)(C)C` [Example 141] has a Ki of 100 to 500 nM. In the case of `COC[C@@H](NC(=O)N[C@H](C(=O)N1C[C@H]2[C@@H]([C@H]1C(=O)N[C@@H](CC(F)F)C(=O)NCCc1ccc(C(=O)OC)cc1)C2(C)C)C(C)(C)C)C(C)(C)C` [Example 142], the Ki is reported as 100 to 500 nM. For `CC(C)[C@H](NC(=O)N[C@H](C(=O)N1C[C@@H]2OC(C)(C)C[C@@H]2[C@H]1C(=O)N[C@@H](CC(F)F)C(=O)NCCc1ccccc1)C1CCCCC1)C(=O)OC(C)(C)C` [Example 152], the Ki was > 500 nM. `CC(C)[C@H](NC(=O)N[C@H](C(=O)N1C[C@H]2[C@@H]([C@H]1C(=O)N[C@@H](CC(F)F)C(=O)NCCc1ccc(C(N)=O)cc1)C2(C)C)C(C)(C)C)C(N)=O` [Example 144] was tested, and the Ki was 100 to 500 nM. For `CC(C)[C@H](NC(=O)N[C@H](C(=O)N1C[C@H]2[C@@H]([C@H]1C(=O)N[C@@H](CC(F)F)C(=O)NCCC(=O)OC(C)(C)C)C2(C)C)C(C)(C)C)C(=O)OC(C)(C)C` [Example 174], the Ki was > 500 nM. For `CC(C)[C@H](NC(=O)N[C@H](C(=O)N1C[C@@H]2OC(C)(C)C[C@@H]2[C@H]1C(=O)N[C@@H](CC(F)F)C(=O)NCCc1ccc(C(=O)O)cc1)C1CCCCC1)C(=O)OC(C)(C)C` [Example 150], the Ki was > 500 nM. For `CC(C)[C@H](NC(=O)N[C@H](C(=O)N1C[C@H]2[C@@H]([C@H]1C(=O)NC(CC(F)F)C(=O)NCCc1ccccc1Cl)C2(C)C)C(C)(C)C)C(=O)OC(C)(C)C` (stereo partly shown) [Example 147], the Ki was > 500 nM.

Same assay, conditions: Ki, Table 1; single chain NS4A21-32-GSGS-NS3 3-181 protease, 30° C., pH 6.5
In the case of `COC(=O)c1ccc(CCNC(=O)[C@H](CC(F)F)NC(=O)[C@@H]2[C@@H]3[C@H](CN2C(=O)[C@@H](NC(=O)NC2(CS(C)(=O)=O)CCCCC2)C(C)(C)C)C3(C)C)cc1` [Example 110], the Ki is reported as 40 nM. Work on `CC(C)(C)[C@H](NC(=O)N[C@H](CN1CCCS1(=O)=O)C(C)(C)C)C(=O)N1C[C@H]2[C@@H](C1C(=O)NC(CC(F)F)C(=O)NCCc1ccc(C(=O)O)cc1Cl)C2(C)C` (stereo partly shown) [Example 102] yielded a Ki of 21 nM. `COC(=O)c1ccc(CCNC(=O)[C@H](CC(F)F)NC(=O)[C@@H]2[C@@H]3[C@H](CN2C(=O)[C@@H](NC(=O)N[C@H](CN2CCCS2(=O)=O)C(C)(C)C)C(C)(C)C)C3(C)C)c(Cl)c1` [Example 108] was tested, and the Ki was 30 nM. `CC(C)[C@@H](CNS(=O)(=O)c1ccccc1)NC(=O)N[C@H](C(=O)N1C[C@H]2[C@@H]([C@H]1C(=O)N[C@@H](CC(F)F)C(=O)NCCc1ccc(C(=O)O)cc1)C2(C)C)C(C)(C)C` [Example 115] gave a Ki of 90 nM. In the case of `CC(C)[C@@H](CN(C)S(=O)(=O)c1ccccc1)NC(=O)N[C@H](C(=O)N1C[C@H]2[C@@H]([C@H]1C(=O)N[C@@H](CC(F)F)C(=O)NCCc1ccc(C(=O)O)cc1)C2(C)C)C(C)(C)C` [Example 112], the Ki is reported as 50 nM. `CC(C)[C@H](NC(=O)N[C@H](C(=O)N1C[C@H]2[C@@H]([C@H]1C(=O)N[C@@H](CC(F)F)C(=O)NCCc1ccc(C(=O)O)cc1)C2(C)C)C(C)(C)C)C(=O)O` [Example 113] was tested, and the Ki was 90 nM.

Same assay, conditions: Ki, Table 3; rating; single chain NS4A21-32-GSGS-NS3 3-181 protease, 30° C., pH 6.5
For `CN(C[C@@H](NC(=O)N[C@H](C(=O)N1C[C@H]2[C@@H]([C@H]1C(=O)N[C@@H](CC(F)F)C(=O)NCc1ccccn1)C2(C)C)C(C)(C)C)C(C)(C)C)S(C)(=O)=O` [Example 233], the Ki was > 500 nM. `CN(C[C@@H](NC(=O)N[C@H](C(=O)N1C[C@H]2[C@@H]([C@H]1C(=O)N[C@@H](CC(F)F)C(=O)NCCS(=O)(=O)C(C)(C)C)C2(C)C)C(C)(C)C)C(C)(C)C)S(C)(=O)=O` [Example 253] was tested, and the Ki was > 500 nM. For `CN(C)CC(C)(C)CNC(=O)[C@H](CC(F)F)NC(=O)[C@@H]1[C@@H]2[C@H](CN1C(=O)[C@@H](NC(=O)N[C@H](CN(C)S(C)(=O)=O)C(C)(C)C)C(C)(C)C)C2(C)C` [Example 241], the Ki was > 500 nM. `CN(C[C@@H](NC(=O)N[C@H](C(=O)N1C[C@H]2[C@@H]([C@H]1C(=O)N[C@@H](CC(F)F)C(=O)NCCC#N)C2(C)C)C(C)(C)C)C(C)(C)C)S(C)(=O)=O` [Example 204] was tested, and the Ki was > 500 nM. With `CC(NC(=O)[C@H](CC(F)F)NC(=O)[C@@H]1[C@@H]2[C@H](CN1C(=O)[C@@H](NC(=O)N[C@H](CN(C)S(C)(=O)=O)C(C)(C)C)C(C)(C)C)C2(C)C)c1ccc(Cl)cc1` (stereo partly shown) [Example 226] the Ki was > 500 nM. In the case of `CC1(C)CC(=O)N(C[C@@H](NC(=O)N[C@H](C(=O)N2C[C@H]3[C@@H]([C@H]2C(=O)N[C@@H](CC(F)F)C(=O)NCCc2c(F)cccc2F)C3(C)C)C(C)(C)C)C(C)(C)C)C(=O)C1` [Example 309], the Ki is reported as < 100 nM. `COc1cc(CCNC(=O)[C@H](CC(F)F)NC(=O)[C@@H]2[C@@H]3[C@H](CN2C(=O)[C@@H](NC(=O)N[C@H](CN(C)S(C)(=O)=O)C(C)(C)C)C(C)(C)C)C3(C)C)cc(OC)c1O` [Example 297] gave a Ki of 100 to 500 nM. For `CCCOc1ccc(CCNC(=O)[C@H](CC(F)F)NC(=O)[C@@H]2[C@@H]3[C@H](CN2C(=O)[C@@H](NC(=O)N[C@H](CN(C)S(C)(=O)=O)C(C)(C)C)C(C)(C)C)C3(C)C)cc1Cl` [Example 299], the Ki was < 100 nM. With `CN(C[C@@H](NC(=O)N[C@H](C(=O)N1C[C@H]2[C@@H]([C@H]1C(=O)N[C@@H](CC(F)F)C(=O)N[C@H]1CCCC[C@@H]1OCc1ccccc1)C2(C)C)C(C)(C)C)C(C)(C)C)S(C)(=O)=O` [Example 255] the Ki was > 500 nM. With `CN(C[C@@H](NC(=O)N[C@H](C(=O)N1C[C@H]2[C@@H]([C@H]1C(=O)N[C@@H](CC(F)F)C(=O)NCCCn1cccc1)C2(C)C)C(C)(C)C)C(C)(C)C)S(C)(=O)=O` [Example 238] the Ki was > 500 nM. With `CN(C[C@@H](NC(=O)N[C@H](C(=O)N1C[C@H]2[C@@H]([C@H]1C(=O)N[C@@H](CC(F)F)C(=O)NCCc1c(Cl)cccc1Cl)C2(C)C)C(C)(C)C)C(C)(C)C)S(C)(=O)=O` [Example 284] the Ki was < 100 nM. `COc1ccc(CCNC(=O)[C@H](CC(F)F)NC(=O)[C@@H]2[C@@H]3[C@H](CN2C(=O)[C@@H](NC(=O)N[C@H](CN(C)S(C)(=O)=O)C(C)(C)C)C(C)(C)C)C3(C)C)cc1O` [Example 295] was tested, and the Ki was < 100 nM. In the case of `CN(C[C@@H](NC(=O)N[C@H](C(=O)N1C[C@H]2[C@@H]([C@H]1C(=O)N[C@@H](CC(F)F)C(=O)NC1CC1)C2(C)C)C(C)(C)C)C(C)(C)C)S(C)(=O)=O` [Example 203], the Ki is reported as > 500 nM. For `CCc1ccc(CCNC(=O)[C@H](CC(F)F)NC(=O)[C@@H]2[C@@H]3[C@H](CN2C(=O)[C@@H](NC(=O)N[C@H](CN(C)S(C)(=O)=O)C(C)(C)C)C(C)(C)C)C3(C)C)cc1` [Example 268], the Ki was < 100 nM. `CCOc1ccccc1CCNC(=O)[C@H](CC(F)F)NC(=O)[C@@H]1[C@@H]2[C@H](CN1C(=O)[C@@H](NC(=O)N[C@H](CN(C)S(C)(=O)=O)C(C)(C)C)C(C)(C)C)C2(C)C` [Example 273] was tested, and the Ki was < 100 nM. `COc1cccc(CCNC(=O)[C@H](CC(F)F)NC(=O)[C@@H]2[C@@H]3[C@H](CN2C(=O)[C@@H](NC(=O)N[C@H](CN(C)S(C)(=O)=O)C(C)(C)C)C(C)(C)C)C3(C)C)c1` [Example 270] was tested, and the Ki was < 100 nM. In the case of `Cc1cccc(CCNC(=O)[C@H](CC(F)F)NC(=O)[C@@H]2[C@@H]3[C@H](CN2C(=O)[C@@H](NC(=O)N[C@H](CN(C)S(C)(=O)=O)C(C)(C)C)C(C)(C)C)C3(C)C)c1` [Example 260], the Ki is reported as < 100 nM. `Cc1ccc(CCNC(=O)[C@H](CC(F)F)NC(=O)[C@@H]2[C@@H]3[C@H](CN2C(=O)[C@@H](NC(=O)N[C@H](CN(C)S(C)(=O)=O)C(C)(C)C)C(C)(C)C)C3(C)C)cc1` [Example 261] was tested, and the Ki was < 100 nM. In the case of `CC(Cc1ccc(Cl)cc1)NC(=O)[C@H](CC(F)F)NC(=O)[C@@H]1[C@@H]2[C@H](CN1C(=O)[C@@H](NC(=O)N[C@H](CN(C)S(C)(=O)=O)C(C)(C)C)C(C)(C)C)C2(C)C` (stereo partly shown) [Example 296], the Ki is reported as 100 to 500 nM. For `CN(C[C@@H](NC(=O)N[C@H](C(=O)N1C[C@H]2[C@@H]([C@H]1C(=O)N[C@@H](CC(F)F)C(=O)NCC1CCCO1)C2(C)C)C(C)(C)C)C(C)(C)C)S(C)(=O)=O` (stereo partly shown) [Example 210], the Ki was > 500 nM.
